The test system of assay [1] is phenylquinone writhing. Nature of the assay: Phenylquinone writhing test (analgesic activity). In kind it is in vivo, female white mice. To be noted: Mus musculus; oral in 1% methylcellulose, fasted mice, observed from 30 minutes after dosing for 10 minutes; effective analgesic dose for 50% of the mice; read-out: PQW ED50. Here is the method: A procedure for detecting and comparing the analgesic activity of compounds in this series and standard drugs for which there is a good correlation with human efficacy is the phenylquinone writhing test.
The phenylquinone writhing test, modified from Siegmund, et al., Proc. Soc. Exp. Biol. Med. 95, 729 (1957), was employed. A test compound suspended in 1% methylcellulose was given orally to fasted (17-21 hours) female white mice, 5-20 animals per double blind test. Aqueous (0.01% phenyl-p-benzoquinone) phenylquinone was injected intraperitoneally 24 minutes later using 0.20 ml per mouse. […] The effective analgesic dose for 50% of the mice (ED50) was calculated by the moving average method of Thompson, W. R., Bact. Rev., 11, 115-145 (1947).
For orientation: In writhing tests, fewer writhes than in controls are read as antinociception.

The subject of assay [2] is Adjuvant-Induced Arthritis in Rats. The assay can be described thus: Established adjuvant-induced arthritis in rats (antiinflammatory activity, paw volume). Particulars: oral by gavage, that day and 6 following days; for AA % Reduction @ 27 mg/kg: % reduction in paw volume at 27 mg/kg, * p <0.05 (Examples 2, 3, 6), ** p >0.1 (Example 9) compared to control. The format is in vivo, Charles River Lewis male rats. Here is the method: A procedure for detecting and comparing the antiinflammatory activity of compounds in this series and standard drugs for which there is a good correlation with human efficacy is the adjuvant-induced arthritis test in rats.
Charles River Lewis male rats (130-150 grams) are injected subcutaneously in plantar area of the right hind paw with 0.1 ml of adjuvant (Difco heat-killed, lyophilized Mycobacterium butyricum suspended in mineral oil 5 mg/ml). 20 Non-arthritic controls are injected with mineral oil. The animals are held for 2 weeks to allow development of arthritis. Paw volumes (uninjected, left hind paw) are measured and the adjuvant injected rats are culled and distributed to treatment groups of 10 of equal disease severity. Non-arthritic controls are distributed to 2 groups of 10. The rats are given oral doses of compound or PVA-Acacia (Polyvinyl Alcohol 1%, Gum Acacia, U.S.P. 5%, Methylparaben 0.5%) (10 ml/kg) by gavage on that day and on the 6 following days. One day after the last dose the paw volumes (uninjected, left hind paw) are measured using a Ugo Basile Volume Differential Meter Model 7101. [formula]
Dose-response regression lines of the % decrease are plotted on semi-log paper by visual fit and the ED50% decrease from control paw volume is determined by inspection. Alternatively, % reduction in paw volume was measured at a dose of 27 mg/kg.

Regarding `COc1ccc(-c2cnc(SC(F)(F)C(F)F)nc2-c2ccc(OC)cc2)cc1` [Example 1, 2-(1,1,2,2-Tetrafluoroethylthio)-4,5-bis(4-methoxyphenyl)pyrimidine], the ED50 is above 108 mg/kg in assay [1] and 25 mg/kg in assay [2] (Rattus norvegicus, ED50% decrease from control paw volume, uninjected left hind paw, read-out: AA ED50).
As for `Fc1ccc(-c2cnc(SC(F)(F)F)nc2-c2ccc(F)cc2)cc1` [Example 2, 2-Trifluoromethylthio-4,5-bis(4-fluorophenyl)-pyrimidine], in assay [1], the ED50 was above 108 mg/kg. Further, in assay [2], the “AA % Reduction @ 27 mg/kg” value is reported as 37%.
For `COc1ccc(-c2nc(SC)ncc2-c2ccc(Cl)cc2)cc1` [Example 3, 2-Methylthio-4-(4-methoxyphenyl)-5-(4-chlorophenyl)-pyrimidine] the same measures were above 108 mg/kg and 39%.
In the case of `Fc1ccc(-c2cnc(SC(F)(F)C(F)F)nc2-c2ccc(F)cc2)cc1` [Example 4], the ED50 in assay [1] worked out at 45 mg/kg. In assay [2], the “AA % Reduction @ 27 mg/kg” value came out at 0%.
The like results for `COc1ccc(-c2cnc(SC(F)(F)F)nc2-c2ccc(OC)cc2)cc1` [Example 6] were, in that order, 48 mg/kg and 32%.
For `COc1ccc(-c2nc(SC(F)(F)F)ncc2-c2ccc(Cl)cc2)cc1` [Example 7] the same measures were 49 mg/kg and 0%.
The like results for `COc1ccc(-c2cnc(SC)nc2-c2ccc(OC)cc2)cc1` [Example 9] were, in that order, 108 mg/kg and 16%.

Broadly, the ED50 is the midpoint of the dose-response relation.

(Values after patent US4438117A, “2-Substituted thio-4,5-diarylpyrimidines” (E. I. Du Pont de Nemours and Company, priority 1980, dated 1984).)
